Test results from patent US10398689B2, “Benzopiperidine derivative, preparation method thereof and medical use thereof” (Jiangsu Hengrui Medicine Co., Ltd., priority 2015, dated 2019).

What was measured:
ER (estrogen receptor) = molecular target: T1, ER (estrogen receptor) (Homo sapiens, UniProt P03372); assay: Inhibition of the binding of estrogen (E) to estrogen receptor (ER), MCF-7/ERE-luciferase reporter cells; assay type: cell-based; conditions: MCF-7/ERE-luciferase cells, 0.1 nM estradiol, 24 hours, chemiluminescence; read-out: IC50 value of inhibition effect on the binding of E to ER
T1 construct: MCF-7/ERE-luciferase monoclonal cells were selected by transfection of MCF-7; host or cells: MCF-7/ERE-luciferase (only the ERE-luciferase reporter was transfected)
T1 sequence (P03372 1-595): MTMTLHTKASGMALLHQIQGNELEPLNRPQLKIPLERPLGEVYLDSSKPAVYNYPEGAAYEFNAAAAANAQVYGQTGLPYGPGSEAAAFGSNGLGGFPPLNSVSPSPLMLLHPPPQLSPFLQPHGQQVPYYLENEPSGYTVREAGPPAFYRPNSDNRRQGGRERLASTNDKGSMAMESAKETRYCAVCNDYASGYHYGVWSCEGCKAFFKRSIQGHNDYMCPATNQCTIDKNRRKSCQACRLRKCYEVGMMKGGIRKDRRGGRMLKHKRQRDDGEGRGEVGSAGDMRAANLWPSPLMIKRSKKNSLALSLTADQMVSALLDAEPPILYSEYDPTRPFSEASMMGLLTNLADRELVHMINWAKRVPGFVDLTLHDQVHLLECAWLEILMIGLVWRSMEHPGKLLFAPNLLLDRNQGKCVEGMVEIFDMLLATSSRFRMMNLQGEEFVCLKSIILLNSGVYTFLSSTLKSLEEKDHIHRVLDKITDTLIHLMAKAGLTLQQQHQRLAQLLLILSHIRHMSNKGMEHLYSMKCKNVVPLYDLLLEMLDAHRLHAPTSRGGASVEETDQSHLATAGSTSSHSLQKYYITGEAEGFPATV
Description: The compounds of the present invention have an inhibition effect on the binding of E (estrogen) to ER (estrogen receptor), thereby blocking the binding of a complex of E and ER complex to ERE (estrogen responsive element), and subsequently blocking the expression of downstream luciferase protein.
The inhibition effect of the compounds on the binding of E to ER in vitro was tested by the following method.
The object of this experiment was to determine the inhibition effect of the compounds on the binding of E to ER, and the in vitro activity of the compounds was evaluated according to the IC50 values.
ERE was cloned into the upstream of the luciferase gene, and MCF-7/ERE-luciferase monoclonal cells were selected by transfection of MCF-7 (Cell Bank of Chinese Academy of Sciences typical culture preservation Committee, TCHu74). MCF-7/ERE-luciferase cells were inoculated into the MEM medium (hyclone, SH30024.01B) containing 10% charcoal stripped FBS (Moregate, FBSF), 1% sodium pyruvate (Sigma, S8636), 1% nonessential amino acids (Sigma, M7145) and 500 μg/ml G418 in a 96-well plates with a density of 30,000 cells/well, and the cells were incubated under the conditions of 37° C., and 5% CO2. The drug was prepared as a 20 mM stock solution that was later diluted with 100% DMSO in 10 fold concentration gradient, and then diluted 20-fold with the medium DMEM. After incubation for 24 hours, the medium was removed, then 0.1 nM estradiol (Sigma, E2758) and 10 μl of the drug diluted with the medium were added to each well, and the control group was added with DMSO. The plate was gently shaken and incubated in a incubator at 37° C., 5% CO2. After 24 hours, the cell culture medium was discarded, Then, 50 μl of the prepared luciferase substrate (Promega, E6110) was added to each well, and the plate was placed in the dark at room temperature for 10-15 minutes, then the chemiluminescence signal value was determined.
The inhibition effect of the compounds of the present invention on the binding of E to ER was tested by the experiment described above. The values of the chemiluminescence signal vs the logarithmic concentrations of the compounds were plotted using Graphpad Prism, and the measured IC50 values are shown in Table 1.

MCF7 cells = assay: Inhibition of the proliferation of MCF7 cells (Cell Titer-Glo); assay type: cell-based; conditions: Homo sapiens, MCF-7 cells, 72 hours, read-out: IC50 value of inhibition effect on the proliferation of MCF7 cells
Description: The object of this experiment was to determine the inhibition effect of the compounds on the proliferation activity of MCF7 cells, and the in vitro activity of the compounds was evaluated according to the IC50 values.
MCF-7 cells (Cell Bank of Chinese Academy of Sciences typical culture preservation Committee, TChu 74) were inoculated into the MEM medium (Hyclone, SH30024.01B) containing 10% FBS (Gibco, 10099-141), 1% sodium pyruvate (Sigma, S8636), and 1% nonessential amino acids (Sigma, M7145) in a 96-well plate with a density of 40,000 cells/well, and the cells were incubated under the conditions of 37° C., and 5% CO2. The compound was prepared as a 20 mM stock solution that was later diluted to 1000× final concentration with 100% DMSO, and then diluted with 20-fold medium containing 2% FBS. After incubation for 24 hours, the medium was removed and 90 μl of the medium containing 2% FBS and 10 μl of the drug were added to each well, 10 […] of DMSO was added to the control group, and the blank group contained only 100 μl medium containing 2% FBS. The plate was gently shaken and incubated in a incubator at 37° C., 5% CO2. After 72 hours later, 50 μl of mixed Cell Titer-Glo (Promega, G7571) was added to each well. The plate was shaken until the ingredients were mixed uniformly, and placed at room temperature for 10 minutes, then the chemiluminescence signal value was determined. The inhibition effect of the compound AZD9496 at 100 nM on the proliferation of MCF-7 cells was set to 100%, the maximum inhibition rate of other compounds=(chemiluminescence signal valuenegative control−chemiluminescence signal valuecompound 100 nm)/(chemiluminescence signal valuenegative control−chemiluminescence signal valueAZD9496 100 nm)×100%, and the negative control was a well with 0.5% DMSO.
The values of the chemiluminescence signals vs the logarithmic concentrations of the compounds were plotted using Graghpad Prism to obtain the IC50 values.

| IC50 (ER (estrogen receptor)) [nM] | IC50 (MCF7 cells) [nM] | Structure (SMILES) |
| --- | --- | --- |
| 0.27 | 1.12 | CCn1cc(-c2ccc3c(c2)CC(C)N(c2ccc(C4CC4)cc2)C3c2ccc(/C=C/C(=O)O)cc2)cn1 [Example 13, (E)-3-(4-((1R,3R/1S,3S)-2-(4-Cyclopropylphenyl)-6-(1-ethyl-1H-pyrazol-4-yl)-3-methyl-1,2,3,4-tetrahydroisoquinolin-1-yl)phenyl)acrylic acid] |
| 3.32 | 0.65 | CCc1ccc(N2C(C)Cc3cc(-c4cnn(CC)c4)ccc3C2c2ccc(/C=C/C(=O)O)cc2)cc1 [Example 17, (E)-3-(4-((1R,3R/1S,3S)-6-(1-Ethyl-1H-pyrazol-4-yl)-2-(4-ethylphenyl)-3-methyl-1,2,3,4-tetrahydroisoquinolin-1-yl)phenyl)acrylic acid] |
|  | 4.53 | CCCc1ccc(N2C(C)Cc3cc(-c4cnn(C)c4)ccc3C2c2ccc(/C=C/C(=O)O)cc2)cc1 [Example 20, (E)-3-(4-((1R,3R/1S,3S)-3-Methyl-6-(1-methyl-1H-pyrazol-4-yl)-2-(4-propylphenyl)-1,2,3,4-tetrahydroisoquinolin-1-yl)phenyl)acrylic acid] |
| 1 | 0.57 | CCn1cc(-c2ccc3c(c2)CC(C)N(c2ccc(C4CC4)cc2F)C3c2ccc(/C=C/C(=O)O)cc2)cn1 [Example 22, (E)-3-(4-((1R,3R/1S,3S)-2-(4-Cyclopropyl-2-fluorophenyl)-6-(1-ethyl-1H-pyrazol-4-yl)-3-methyl-1,2,3,4-tetrahydroisoquinolin-1-yl)phenyl)acrylic acid] |
| 0.85 | 0.81 | CCc1ccc(N2C(C)Cc3cc(-c4cnn(CC)c4)ccc3C2c2ccc(/C=C/C(=O)O)cc2)c(Cl)c1 [Example 23, (E)-3-(4-((1R,3R/1S,3S)-2-(2-Chloro-4-ethylphenyl)-6-(1-ethyl-1H-pyrazol-4-yl)-3-methyl-1,2,3,4-tetrahydroisoquinolin-1-yl)phenyl)acrylic acid] |
| 1.81 | 0.9 | CCn1cc(-c2ccc3c(c2)CC(C)N(c2ccc(C4CC4)cc2Cl)C3c2ccc(/C=C/C(=O)O)cc2)cn1 [Example 24, (E)-3-(4-((1R,3R/1S,3S)-2-(2-Chloro-4-cyclopropylphenyl)-6-(1-ethyl-1H-pyrazol-4-yl)-3-methyl-1,2,3,4-tetrahydroisoquinolin-1-yl)phenyl)acrylic acid] |
| 1.62 | 0.89 | CCn1cc(-c2ccc3c(c2)CC(C)N(c2ccc(C4CC4)cc2)C3c2ccc(/C=C/C(=O)O)cc2F)cn1 [Example 25, (E)-3-(4-((1S,3R/1R,3S)-2-(4-Cyclopropylphenyl)-6-(1-ethyl-1H-pyrazol-4-yl)-3-methyl-1,2,3,4-tetrahydroisoquinolin-1-yl)-3-fluorophenyl)acrylic acid] |
| 6.76 |  | CCn1cc(-c2ccc3c(c2)CC(C)N(c2ccc(C4CC4)c(F)c2)C3c2ccc(/C=C/C(=O)O)cc2)cn1 [Example 26, (E)-3-(4-((1R,3R/1S,3S)-2-(4-Cyclopropyl-3-fluorophenyl)-6-(1-ethyl-1H-pyrazol-4-yl)-3-methyl-1,2,3,4-tetrahydroisoquinolin-1-yl)phenyl)acrylic acid] |
| 0.42 | 0.31 | CCn1cc(-c2ccc3c(c2)C[C@@H](C)N(c2ccc(C4CC4)cc2C)[C@@H]3c2ccc(/C=C/C(=O)O)cc2)cn1 [Example 28, (E)-3-(4-((1R,3R)-2-(4-Cyclopropyl-2-methylphenyl)-6-(1-ethyl-1H-pyrazol-4-yl)-3-methyl-1,2,3,4-tetrahydroisoquinolin-1-yl)phenyl)acrylic acid] |
| 1.26 | 2.36 | CC1Cc2cc(-c3cnn(C(F)F)c3)ccc2C(c2ccc(/C=C/C(=O)O)cc2)N1c1ccc(C2CC2)cc1 (centres unmarked) [Example 29] |
| 0.34 | 2.7 | CCn1cc(-c2ccc3c(c2)CC(C)N(c2ccc(C4CC4)cc2)C3c2c(F)cc(/C=C/C(=O)O)cc2F)cn1 [Example 30, (E)-3-(4-((1S,3R/1R,3S)-2-(4-Cyclopropylphenyl)-6-(1-ethyl-1H-pyrazol-4-yl)-3-methyl-1,2,3,4-tetrahydroisoquinolin-1-yl)-3,5-difluorophenyl)acrylic acid] |
| 0.74 | 0.42 | CCn1cc(-c2ccc3c(c2)C[C@@H](C)N(c2ccc(C4CC4)cc2)[C@@H]3c2c(F)cc(/C=C/C(=O)O)cc2F)cn1 [Example 32] |
| 5.42 |  | Cc1ccc(N2[C@H](c3ccc(/C=C/C(=O)O)cc3)c3ccc(-c4cnn(C)c4)cc3C[C@H]2C)cc1 [Example 34] |
| 1 | 1.03 | Cc1ncc(-c2ccc3c(c2)CC(C)N(c2ccc(C4CC4)cc2)C3c2ccc(/C=C/C(=O)O)cc2)s1 [Example 35, (E)-3-(4-((1R,3R/1S,3S)-2-(4-Cyclopropylphenyl)-3-methyl-6-(2-methylthiazol-5-yl)-1,2,3,4-tetrahydroisoquinolin-1-yl)phenyl)acrylic acid] |
| 8.08 |  | CC1Cc2cc(-c3cnn(C)c3)ccc2C(c2ccc(/C=C/C(=O)O)cc2)N1c1ccc(C(C)(C)C)cc1 [Example 41, (E)-3-(4-((1R,3R/1S,3S)-2-(4-(tert-Butyl)phenyl)-3-methyl-6-(1-methyl-1H-pyrazol-4-yl)-1,2,3,4-tetrahydroisoquinolin-1-yl)phenyl)acrylic acid] |
| 31.7 |  | CC1Cc2cc(-c3cnn(C)c3)ccc2C(c2ccc(/C=C/C(=O)O)cc2)N1c1ccc(CC(F)(F)F)cc1 [Example 43, (E)-3-(4-((1R,3R/1S,3S)-3-Methyl-6-(1-methyl-1H-pyrazol-4-yl)-2-(4-(2,2,2-trifluoroethyl)phenyl)-1,2,3,4-tetrahydroisoquinolin-1-yl)phenyl)acrylic acid] |
| 7.57 |  | CCOc1ccc(N2C(C)Cc3cc(-c4cnn(C)c4)ccc3C2c2ccc(/C=C/C(=O)O)cc2)cc1 [Example 44, (E)-3-(4-((1R,3R/1S,3S)-2-(4-Ethoxyphenyl)-3-methyl-6-(1-methyl-1H-pyrazol-4-yl)-1,2,3,4-tetrahydroisoquinolin-1-yl)phenyl)acrylic acid] |
| 4.06 |  | CCc1ccc(N2C(C)Cc3cc(-c4cnn(C)c4)ccc3C2c2ccc(/C=C/C(=O)O)cc2)c(CC)c1 [Example 45, (E)-3-(4-((1R,3R/1S,3S)-2-(2,4-Diethylphenyl)-3-methyl-6-(1-methyl-1H-pyrazol-4-yl)-1,2,3,4-tetrahydroisoquinolin-1-yl)phenyl)acrylic acid] |
